Test results taken from patent publication EP3248604A1, “AGENTS FOR MODULATION OF WNT-TCF SIGNALLING AND USES THEREOF” (UNIVERSITE DE GENEVE, priority 2016, dated 2017).
Like-named read-outs stand apart in the source and are kept apart here.

What was measured:
[1] = test system: WNT-TCF targets; assay: RT-qPCR gene expression in Ls174T cells; assay type: cell-based, human; settings: for fold induction at 0.5 µM / fold induction at 5 µM: Homo sapiens
Description: (§1) RT-qPCR was performed as in Melotti et al. (2014, supra) using BioRad equipment and reagents. Cells cultured in nitro were treated with the desired concentration of drug in DMEM-F12 and reduced serum (2.5% FBS) for 16h, unless otherwise noted, and collected in Trizol (Sigma) before total RNA extraction and cDNA synthesis. Primers were as in Table 1. HPRT (gene encoding Hypoxanthine phosphoribosyltransferase 1) and βACTIN were used as housekeeping controls for normalization.
Compounds have been tested for the transcriptional modulation of a restricted TCF signature in human colon cancer Ls174T cells. These included the direct targets AXIN2 (gene encoding a protein axis inhibition protein 2), LGR5 (gene encoding encodes leucine-rich repeat-containing G-protein coupled receptor 5) and cMYC (a regulator gene encoding a transcription factor), which should be repressed by WNT-TCF response antagonists and p21 (or CDKN1A, gene encoding a cyclin-dependent kinase inhibitor that inhibits the complexes of CDK2 and CDK1), which should be induced.

[2] = test system: CC14 cells; assay: Epithelial island morphology of CC14 cells; assay type: cell-based, human; settings: 24h; for epithelial island morphology: 1 µM
Description: Similar phenotypes were only observed at 10 µM of CAP1 or 5 µM of CAP3. CAP2 was thus chosen for further detailed analyses.

[3] = test system: WNT-TCF targets; assay: RT-qPCR gene expression in CC14 primary colon cancer cells; assay type: cell-based, human; set-up: cMYC expression: scale not given here; settings: 100 nM; Example 2 cells (CC14)
Description: as §1
Primary colon cells CC14 were cultured in DMEM-F12 with 10% FBS under standard in vitro conditions.
Primary colon cells CC14, CC36 and mCC11, colon cancer cell lines DLD1, HT29, Ls174T, melanoma cell line MeWo, glioblastoma cell lines U87 and U251, and the lung cancer cell line H358 were cultured in DMEM-F12 with 10% FBS under standard in nitro conditions.

[4] = test system: cell proliferation; assay: BrdU incorporation assay; assay type: cell-based; settings: 10 µM; 16h
Description: Cells incubated in vitro with different compounds were treated in DMEM-F12 with reduced serum (2.5% FBS) for 20 min with BrdU (5-bromo-2'-deoxyuridine; 10mg/ml, Sigma), washed and fixed with fresh paraformaldehyde (PFA; 4%, pH 8) followed by acid treatment and neutralization (Melotti et al., 2014, supra). Antibody analyses used anti-BrdU antibodies (supplied by University of Iowa Hybridoma Bank) and rhodamine-coupled anti-mouse secondary antibodies (Invitrogen Molecular Probes). Nuclei were counterstained with DAPI (4',6-diamidino-2-phenylindole; Sigma).

[5] = LS174T, 16 h, read-out: AXIN2 expression
[6] = LS174T, 16 h, read-out: CDKN1A expression
[7] = LS174T, 16 h, read-out: cMYC expression
[8] = Ls174T, 0.5µM, 16h, over DMSO-treated controls, read-out: AXIN2 expression
[9] = Ls174T, 0.5µM, 16h, over DMSO-treated controls, read-out: CDKN1A expression
[10] = Ls174T, 0.5µM, 16h, over DMSO-treated controls, read-out: LGR5 expression
[11] = Ls174T, 0.5µM, 16h, over DMSO-treated controls, read-out: cMYC expression
[12] = Ls174T, 0.5µM, 16h, over DMSO-treated controls
[13] = Ls174T, 5µM, 16h, over DMSO-treated controls

Molecule: 2,6-dimethyltetrahydropyran-3,4,5-triol; ethane; 3-(3,14,16-trihydroxy-10,13-dimethyl-1,2,3,4,5,6,7,8,9,11,12,15,16,17-tetradecahydro cyclopenta[a]phenanthren-17-yl)-2H-furan-5-one [CAP3]
- AXIN2 expression ([1]; Ls174T, 10 µM, 16h): 0.7
- CDKN1A expression ([1]; Ls174T, 10 µM, 16h): 6.3
- LGR5 expression ([1]; Ls174T, 10 µM, 16h): 0.2
- cMYC expression ([1]; Ls174T, 10 µM, 16h): 0.2
- epithelial island morphology [2]: maintained
- concentration at which disrupted morphology phenotype was observed [2]: 5 µM

Molecule: CC1=C(C)C(=O)O[C@@H]([C@@](C)(O)[C@]2(O)CC[C@@]3(O)[C@@H]4CC=C5C[C@@H](O[C@@H]6O[C@H](CO)[C@@H](O)[C@H](O)[C@H]6O)CC(=O)[C@]5(C)[C@H]4CC[C@]23C)C1 [CAP1, (14R,17S,20R,22R)-3β,14,17,20-Tetrahydroxy-1-oxo-witha-5,24-dienolide 3-O-β-D-glucopyranoside]
- AXIN2 expression ([1]; Ls174T, 10 µM, 16h): 0.7
- CDKN1A expression ([1]; Ls174T, 10 µM, 16h): 2.5
- LGR5 expression ([1]; Ls174T, 10 µM, 16h): 0.2
- cMYC expression ([1]; Ls174T, 10 µM, 16h): 0.1
- AXIN2 expression [3]: 1.1
- LGR5 expression [3]: 0.8
- cMYC expression [3]: 1.2
- reduction of BrdU incorporation [4]: > 50%
- epithelial island morphology [2]: maintained
- concentration at which disrupted morphology phenotype was observed [2]: 10 µM

Molecule: C[C@@H]1O[C@@H](O[C@H]2CC[C@]3(C=O)[C@H]4CC[C@]5(C)[C@@H](C6=CC(=O)OC6)CC[C@]5(O)[C@@H]4CC[C@]3(O)C2)[C@H](O)[C@H](O)[C@H]1O [Convallatoxin, convallatoxin, reference compound]
- fold induction at 0.5 µM [1, 5]: 1.7
- fold induction at 0.5 µM [1, 6]: 0.3
- fold induction at 0.5 µM ([1]; LS174T, 16 h, read-out: LGR5 expression): 1.6
- fold induction at 0.5 µM [1, 7]: 0.2

Molecule: CO[C@H]1C[C@H](O[C@H]2CC[C@]3(C=O)[C@H]4CC[C@]5(C)[C@@H](C6=CC(=O)OC6)CC[C@]5(O)[C@@H]4CC[C@]3(O)C2)O[C@H](C)[C@H]1O [Cymarin, cymarin, reference compound]
- fold induction at 0.5 µM [1, 8]: 1
- fold induction at 0.5 µM [1, 9]: 0.9
- fold induction at 0.5 µM [1, 10]: 0.9
- fold induction at 0.5 µM [1, 11]: 1

Molecule: C[C@H]1O[C@@H](O[C@H]2[C@@H](O)C[C@H](O[C@H]3[C@@H](O)C[C@H](O[C@H]4CC[C@@]5(C)[C@H](CC[C@@H]6[C@@H]5CC[C@]5(C)[C@@H](C7=CC(=O)OC7)CC[C@]65O)C4)O[C@@H]3C)O[C@@H]2C)C[C@H](O)[C@@H]1O [Digitoxin, digitoxin, reference compound]
- fold induction at 0.5 µM [1, 8]: 0.6
- fold induction at 0.5 µM [1, 9]: 1.7
- fold induction at 0.5 µM [1, 10]: 2.1
- fold induction at 0.5 µM [1, 11]: 0.2
- LGR5 repression ([1]; Ls174T, lower doses 100 and 10 nM): lack of repressing on LGR5

Molecule: C[C@H]1O[C@@H](O[C@H]2[C@@H](O)C[C@H](O[C@H]3[C@@H](O)C[C@H](O[C@H]4CC[C@@]5(C)[C@H](CC[C@@H]6[C@@H]5C[C@@H](O)[C@]5(C)[C@@H](C7=CC(=O)OC7)CC[C@]65O)C4)O[C@@H]3C)O[C@@H]2C)C[C@H](O)[C@@H]1O [Digoxin, digoxin, reference compound]
- fold induction at 0.5 µM [1, 8]: 0.5
- fold induction at 0.5 µM [1, 9]: 3
- fold induction at 0.5 µM [1, 10]: 6.6
- fold induction at 0.5 µM [1, 11]: 1.1

Molecule: C[C@]12CC[C@H](O)C[C@H]1CC[C@@H]1[C@@H]2CC[C@]2(C)[C@@H](C3=CC(=O)OC3)[C@@H](O)C[C@]12O [Gitoxigenin, gitoxigenin, reference compound]
- fold induction at 0.5 µM [1, 8]: 1
- fold induction at 0.5 µM [1, 9]: 0.3
- fold induction at 0.5 µM [1, 10]: 0.6
- fold induction at 0.5 µM [1, 11]: 0.4

Molecule: C[C@H]1O[C@@H](O[C@H]2[C@@H](O)C[C@H](O[C@H]3[C@@H](O)C[C@H](O[C@H]4CC[C@@]5(C)[C@H](CC[C@@H]6[C@@H]5CC[C@]5(C)[C@@H](C7=CC(=O)OC7)[C@@H](O)C[C@]65O)C4)O[C@@H]3C)O[C@@H]2C)C[C@H](O)[C@@H]1O [Gitoxin, gitoxin, reference compound]
- fold induction at 0.5 µM [1, 5]: 0.4
- fold induction at 0.5 µM [1, 6]: 1.3
- fold induction at 0.5 µM [1, 7]: 0.8

Molecule: CO[C@H]1[C@H](O)[C@H](O[C@H]2CC[C@@]3(C)[C@H](CC[C@@H]4[C@@H]3CC[C@]3(C)[C@@H](C5=CC(=O)OC5)CC[C@]43O)C2)O[C@@H](C)[C@@H]1O [Neriifolin, neriifolin, reference compound]
- fold induction at 0.5 µM [1, 8]: 1.2
- fold induction at 0.5 µM [1, 10]: 1.8

Molecule: CO[C@H]1C[C@H](O[C@H]2CC[C@@]3(C)[C@H](CC[C@@H]4[C@@H]3CC[C@]3(C)[C@@H](C5=CC(=O)OC5)[C@@H](OC(C)=O)C[C@]43O)C2)O[C@@H](C)[C@@H]1O [Oleandrin, oleandrin, reference compound]
- fold induction at 0.5 µM [1, 8]: 1.6
- fold induction at 0.5 µM [1, 9]: 1.1
- fold induction at 0.5 µM [1, 10]: 0.5
- fold induction at 0.5 µM [1, 11]: 0.1

Molecule: C[C@@H]1O[C@@H](O[C@H]2C[C@@H](O)[C@]3(CO)[C@H]4[C@H](O)C[C@]5(C)[C@@H](C6=CC(=O)OC6)CC[C@]5(O)[C@@H]4CC[C@]3(O)C2)[C@H](O)[C@H](O)[C@H]1O [Ouabain, ouabain, reference compound]
- fold induction at 0.5 µM [1, 8]: 0.8
- fold induction at 0.5 µM [1, 9]: 10
- fold induction at 0.5 µM [1, 10]: 3.3
- fold induction at 0.5 µM [1, 11]: 0.5
- fold induction at 5 µM ([1]; Ls174T, 5µM, 16h, over DMSO-treated controls, read-out: AXIN2 expression): 1
- fold induction at 5 µM ([1]; Ls174T, 5µM, 16h, over DMSO-treated controls, read-out: LGR5 expression): 1.4

Molecule: CC1=C(C)C(=O)O[C@@H]([C@](C)(O)[C@H]2CC[C@H]3[C@@H]4[C@@H]5O[C@@H]5[C@@]5(O)CC=CC(=O)[C@]5(C)[C@H]4CC[C@]23C)C1 [Withanolide A, withanolide A, reference compound]
- AXIN2 expression [1, 12]: 0.8
- CDKN1A expression [1, 12]: 0.7
- LGR5 expression [1, 12]: 0.8
- cMYC expression [1, 12]: 0.4
- AXIN2 expression [1, 13]: 1.8
- LGR5 expression [1, 13]: 1.3

Molecule: CC1=C(C)C(=O)O[C@@H]([C@@H](C)[C@H]2CC[C@H]3[C@@H]4[C@@H]5O[C@@H]5[C@@]5(O)CC=CC(=O)[C@]5(C)[C@H]4CC[C@]23C)C1 [Withanolide B, withanolide B, reference compound]
- AXIN2 expression [1, 12]: 1.1
- CDKN1A expression [1, 12]: 1.9
- LGR5 expression [1, 12]: 1.3
- cMYC expression [1, 12]: 1.3
- AXIN2 expression [1, 13]: 1.3
- LGR5 expression [1, 13]: 1.4
